Measurements reported in PubChem BioAssay (NCI).
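Method: 48-hour compound exposure of cells in 96-well plates, five concentrations, linear interpolation of endpoints. The concentration for 50% growth inhibition is given as GI50. TGI is the concentration that stops growth completely.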

Legend:
Assay in all cases: DTP human tumour cell line panel, 48 h
CCRF-CEM leukemia = test system: CCRF-CEM leukemia
SW-620 colon = test system: SW-620 colon
KM12 colon = test system: KM12 colon
SF-268 CNS = test system: SF-268 CNS
UACC-257 melanoma = test system: UACC-257 melanoma
SN12C renal = test system: SN12C renal
SK-MEL-5 melanoma = test system: SK-MEL-5 melanoma
COLO 205 colon = test system: COLO 205 colon
M14 melanoma = test system: M14 melanoma
UACC-62 melanoma = test system: UACC-62 melanoma

Compound | GI50 (CCRF-CEM leukemia) [µM] | TGI (CCRF-CEM leukemia) [µM] | GI50 (SW-620 colon) [µM] | TGI (SW-620 colon) [µM] | GI50 (KM12 colon) [µM] | TGI (KM12 colon) [µM] | GI50 (SF-268 CNS) [µM] | TGI (SF-268 CNS) [µM] | GI50 (UACC-257 melanoma) [µM] | TGI (UACC-257 melanoma) [µM] | GI50 (SN12C renal) [µM] | TGI (SN12C renal) [µM] | GI50 (SK-MEL-5 melanoma) [µM] | TGI (SK-MEL-5 melanoma) [µM] | GI50 (COLO 205 colon) [µM] | TGI (COLO 205 colon) [µM] | GI50 (M14 melanoma) [µM] | TGI (M14 melanoma) [µM] | GI50 (UACC-62 melanoma) [µM] | TGI (UACC-62 melanoma) [µM]
CCCCCCCCCCCC1=NC(C)(C)CN1C(C)(C)CO | 2.94 | 12.4 | 1.67 | 3.08 | 1.72 | 3.14 | 2.35 | 11.3 | 1.65 | 3.28 | 4.31 | 17.5 | 1.79 | 3.3 | 1.59 | 3 | 1.79 | 3.4 | 1.86 | 3.54
COc1cc(/C=C/c2ccc(C)cc2)cc(OC)c1OC |  | 25.4 |  | > 68.6 |  | 18.1 |  | 11.2 |  | 31.5 |  | 30.1 |  | 13.3 |  | 13.2 |  | 15.3 |  | 15.6
Fc1ccc(-c2ncn(C3CCNCC3)c2-c2ccnc(Oc3ccc4c(c3)OCO4)n2)cc1 | > 25 | > 25 | > 25 | > 25 | > 25 | > 25 | 24.4 | > 25 | 10.5 | > 25 | 16.7 | > 25 | 3.77 | 8.4 | 9.25 | > 25 | 10.4 | > 25 | > 15.7 | > 25
C=CO/N=[N+](\[O-])N(CC)CC |  | > 100 |  | > 100 |  | > 100 |  | > 100 |  | > 100 |  | > 100 |  | > 100 |  | > 100 |  | > 100 |  | > 100
O=S(=O)(O)O |  | 684 |  | 1030 |  | 2150 |  | 1980 |  | 1990 |  | 1450 |  | 2200 |  | 2210 |  | 1580 |  | 1940
Cc1ccc(/C=C/c2c(C(=O)/C=C/c3ccccc3)c(C)nc3ccccc23)cc1 | 1.69 | > 100 | 1.58 | 4.61 | 1.72 | 3.36 | 2.06 | 5.42 | 1.86 | 4.02 | 1.87 | 3.85 | 1.71 | 3.11 | 1.6 | 3.67 | 1.87 | 4.52 | 1.58 | 3.16
Cc1ccc2nc3ccccc3c(NCc3ccc(Cl)cc3)c2c1 | 2.02 | 8.95 | 2.83 | 9.42 | 6.5 | 13.5 | 6.91 | 14.2 | 8.57 | 16.2 | 5.09 | 12 | 6 | 12.3 | 1.27 | 3.39 | 6.75 | 13.6 | 6.89 | 14
CCC[CH2][Sn]([CH2]CCC)([O]C(=O)c1cc(OC)c(OC)cc1OC)[O][Sn]([CH2]CCC)([CH2]CCC)[O]C(=O)c1cc(OC)c(OC)cc1OC | 0.0421 | 0.422 | 0.182 | 0.536 | 0.897 | 2.3 | 0.27 | 0.972 | 0.276 | 0.883 | 0.532 | 1.72 | 0.898 | 2.15 | 0.381 | 1.32 | 0.282 | 0.797 | 0.251 | 0.715
Cc1cn2c(/C=C3/C(=O)Nc4c3ccc3ccccc43)c(C(F)(F)F)nc2s1 | 2.33 | 39.8 | 0.965 | > 100 | 0.493 | 38.5 | 3.22 | > 100 | > 100 | > 100 | 4.75 | > 100 | 1.03 | > 100 | 0.398 | 1.9 | 0.526 | 11.7 | 0.627 | > 100
CN1C(=O)c2ccc3ccccc3c2C1=O |  | > 100 |  | > 100 |  | > 100 |  | > 100 |  | > 100 |  | > 100 |  | > 100 |  | > 100 |  | > 100 |  | > 100
CCOC(=O)N1C/C(=C\c2ccccc2)C(=O)/C(=C/c2ccccc2)C1 |  | 5.79 |  | 3.7 |  | 4.55 |  | 11.9 |  | 12.5 |  | 5.61 |  | 6.2 |  | 11.6 |  | 6.69 |  | 6.51
CN(C)c1ccc(Nc2c3ccccc3nc3ccccc23)cc1 | 1.23 | 15.7 | 0.665 | 3.67 | 1.32 | 4.54 | 1.52 | 7.83 | 0.987 | 2.65 | 1.03 | 6.76 | 1.03 | 2.2 | 0.82 | 2.16 | 1.22 | 2.61 | 1.19 | 2.98
COc1cc2c3c(n(CCCN)c(=O)c2cc1OC)-c1ccc([N+](=O)[O-])cc1C3=O | 0.15 | 2.73 | 2.12 | 19.1 | 14.6 | 31 | 7.74 | 24.4 | 31 | > 100 | 11.7 | 27.6 | 5.23 | 19.5 | 10.1 | 22.8 | 5.77 | 19.4 | 11.5 | 25.1
O=[N+]([O-])/C=C/c1c(Cl)cccc1Cl |  | > 18.2 |  | 2.18 |  | 5.28 |  | 28.2 |  | 10.2 |  | 5.65 |  | 8.78 |  | 1.76 |  | 4.87 |  | 8.14
CCC(=O)N1C/C(=C/c2ccc(Cl)cc2)C(=O)/C(=C/c2ccc(Cl)cc2)C1 | 0.422 | > 22.3 | 0.287 | 0.94 | 0.25 | 0.665 | 1.17 | 3.16 | 1.64 | 3.24 | 0.711 | 2.05 | 1.46 | 2.81 | 0.757 | 1.95 | 0.992 | 2.6 | 0.728 | 1.94
C[C@H]1[C@H](C)N1CC(O)Cn1ccnc1[N+](=O)[O-] (stereo partly specified) |  | > 100 |  | > 100 |  | > 100 |  | > 100 |  | > 100 |  | > 100 |  | > 100 |  | > 100 |  | > 100 |  | > 100
Cc1cc(N(CCC#N)S(=O)(=O)c2ccccc2)ccc1/C=C1\N=C(c2ccc(Cl)cc2)OC1=O |  | > 100 |  | > 100 |  | > 100 |  | > 100 |  | > 100 |  | > 100 |  | > 100 |  | > 100 |  | > 100 |  | > 100
O=[N+]([O-])c1cc[n+]([O-])c2ccccc12 | 1.55 | 5.27 | 0.106 | 0.56 | 0.0832 | 0.332 | 0.282 | 1.24 | 0.229 | 0.77 | 0.244 | 1.13 | 0.184 | 0.437 | 0.153 | 0.488 | 0.182 | 0.521 | 0.231 | 0.698
COc1cc(CNc2nc3c(N)cc(C(F)(F)F)cc3nc2-c2ccccc2)cc(OC)c1OC | > 100 | > 100 |  | > 100 |  | > 100 |  | > 100 |  | > 100 |  | > 100 |  | > 100 |  | > 100 |  | > 100 |  | > 100
[2H]C([2H])([2H])NC(=O)c1nnc(NC(=O)C2CC2)cc1Nc1cccc(-c2ncn(C)n2)c1OC | 19.8 | > 100 | 41.6 | > 100 | 32.1 | > 100 | 45.7 | > 100 | > 100 | > 100 | 34.5 | > 100 | 50.2 | > 100 | 97.1 | > 100 | 9.22 | > 100 | 91.6 | > 100
COc1ccc(-c2cc(=O)n(-c3nc4ccccc4[nH]3)[nH]2)cc1OC | 2.66 | 38.1 | 3.41 | > 100 | 8.56 | > 100 | 10.2 | > 100 | 6.4 | 61 | 8.85 | > 100 | 4.08 | 34.9 | 35.8 | > 100 | 6.74 | > 100 | 3.79 | 24.1
C=CC(=O)N1CCC(c2ccc(C(N)=O)c(-c3ccc(Oc4ccccc4)cc3)n2)CC1 | 33.9 | > 100 | 41.2 | > 100 | 39.6 | > 100 | 50.5 | > 100 | 27.9 | > 100 | 28.2 | > 100 | 20.6 | 41.9 | 42 | > 100 | 34.3 | > 100 | 30 | > 100
